Data on one molecule can be found in ChEMBL document CHEMBL5725543, “Aniline derivative, pharmaceutical composition containing same, and use thereof” (2017).

The target of the assay is Sphingosine 1-phosphate receptor 1 (Homo sapiens, UniProt P21453). The assay can be described thus: BCA Protein Assay: Inhibitory activity evaluation was performed by multi-screen (registered trademark) HTS 96-well plate (Millipore) using the cell membrane fraction stably expressing S1P1 obtained by the above operation. 25 μL of assay solution (50 mM Tris, 100 mM sodium chloride, 5 mM magnesium chloride, 1 mM EDTA, 1 mM DTT (dithiothreitol), 10 μM GDP (guanosine diphosphate) and 0.5% BSA (bovine serum albumin), pH 7.4), 25 μL of test compounds solution diluted by assay solution and 25 μL of the membrane fraction (0.2 μg protein/μL) were added to each well, and the mixture was gently shaken at room temperature: for 30 minutes. Then, 25 μL of 35S-GTP, and 25 μL of 50 nM S1P1 receptor selective agonist (1-[4-(4-phenyl-5-trifluoromethylthiophen-2-ylmethoxy)benzyl]azetidine-3-carboxylic acid, ¿J. Med. Chem.¿, 2004, vol. 47, pp. 6662-6665, compound 18) were added to each well, respectively, and it was reacted at room temperature for 60 minutes. After the reaction, a reaction solution of each well was suction-filtered. After suction filtration, ice-colded wash solution (50 mM Tris, 100 mM sodium chloride, […] and 1 mM EDTA, pH 7.4) was added to each well, and moreover filters were washed by suction filtration. This wash procedure was performed three times. A bottom of the plate containing the filters was dried at 60° C. […].
Sequence of Sphingosine 1-phosphate receptor 1 (P21453 whole entry): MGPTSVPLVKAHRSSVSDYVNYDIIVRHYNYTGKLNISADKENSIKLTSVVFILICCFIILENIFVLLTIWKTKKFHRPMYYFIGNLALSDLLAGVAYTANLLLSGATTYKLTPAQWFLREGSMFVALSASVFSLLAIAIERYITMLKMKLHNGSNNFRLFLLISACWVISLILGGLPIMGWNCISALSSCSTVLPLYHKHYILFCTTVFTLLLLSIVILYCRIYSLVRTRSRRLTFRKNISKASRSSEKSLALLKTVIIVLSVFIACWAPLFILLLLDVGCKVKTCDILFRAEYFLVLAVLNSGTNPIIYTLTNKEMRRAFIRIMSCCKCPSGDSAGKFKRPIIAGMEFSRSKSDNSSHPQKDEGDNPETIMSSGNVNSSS

In the case of `CCN(c1ccc(Cl)c(C)c1)C(CO)c1cccc(CN2CC(C(=O)O)C2)c1` (stereo unspecified), the IC50 came to 11.2 nM.
